Patent US20120201908A1, “METHOD OF TREATING BIPOLAR DISORDER OR DEPRESSION USING AN ANTIESTROGEN” (Lunera Equities, LLLP, priority 2009, published 2012)
Entries after “also recorded” stand apart in the source; their conditions may differ. Where a name gives a salt, the structure may show the parent alone. Read-outs that look alike come from different tables or passages of the source.

Columns and labels:
[1] = tested on: symptoms of bipolar disorder; test: Pilot study Subject E: tamoxifen citrate added to bipolar medication, mood charts and psychiatrist visits; format: in vivo, human
Description: Subject E is a person and an insulin dependent diabetic. Subject E was diagnosed with bipolar disorder at […]. They have had surgery in the past for their knees, their neck and stitches for their head. Subject E has been institutionalized multiple times within the last nine years for their own protection. To date, no medications have seemed to help. Subject also has a history of alcoholism. Some complexity was expected in treatment due to diabetes.

[2] = tested on: symptoms of bipolar disorder (bipolar I); test: Pilot study Subject D: tamoxifen citrate added to bipolar medication, mood charts and psychiatrist visits; format: in vivo, human
Description: Subject D is a person with a family history of bipolar disorder. Although Subject D had symptoms spanning Asperger's Syndrome, Bipolar I, Obsessive-Compulsive Disorder, Oppositional Defiant Disorder and anti-social traits, bipolar I was the diagnosis for several reasons, including the fact that it was present on both sides of the family and the symptoms were better suited to a bipolar diagnosis.
First visit: Day 1. Due to Subject D's extreme condition, past hospitalizations and the complicated mixture of medications, the psychiatrist spent approximately one hour with the subject. […] Subject D was also given a copy of the Gary Sach's Mood Chart for the subject and their parent to be filled out daily for the psychiatrist's weekly review.

[3] = tested on: symptoms of bipolar disorder (bipolar disorder I); test: Case report Subject A: antiestrogen to treat symptoms of bipolar disorder; conditions: for mood swings with the antiestrogen as only bipolar medication: tamoxifen citrate 20 mg base equivalents or Arimidex 1 mg, once every day or every other day; for effect of earlier medication on bipolar mood swings / side effects / reason for discontinuation of earlier medication: medication history before the antiestrogen
Method: (§1) The following list describes the drugs that were tried in combination with Eskalith: • 1. Depakote® (Divalproex Sodium Delayed Release Tablets) 50 mg daily. […] Tegretol XR® (Carbamazepine) 200 mg twice daily. […] Risperdal® (Risperidone) 3 mg per day. […] Prozac® (Olanzapine and Fluoxetine hydrochloride) 20 mg twice daily. […] Klonopin® (Clonazepam): originally from 2002 to 2009 was 8 mg to 10 mg daily for generalized anxiety. […] Lamictal® (Lamotrigine) Titration schedule over five weeks up to 250 mg twice daily.

[4] = tested on: symptoms of bipolar disorder (bipolar disorder II); test: Case report Subject B: antiestrogen to treat symptoms of bipolar disorder; format: in vivo, human
Method: Subject B is a person in good general physical health with a family history of bipolar disorder. Subject B underwent Cholecystectomy. Subject B was diagnosed with Meniere's Syndrome. Subject B was diagnosed with bipolar disorder II, at which time Lamictal was prescribed by a psychiatrist. […] The psychiatrist then prescribed Effexor XR® (venlafaxine hydrochloride) 75 mg/daily. […] A general physician prescribed 1.5 mg/Klonopin® (Clonazepam) daily.
Subject B also remained mentally alert and stable. […] Currently, Subject B remains stable and emotionally level.
Subject B's spouse states that Subject B is much more level, enjoys their life to a new degree, no longer loses control or becomes violent without warning. The entire family feels that life is much easier since Subject B began taking the antiestrogen.

[5] = tested on: symptoms of acute/severe depression; test: Case report Subject C: antiestrogen in descending daily dosing to treat acute/severe depression; format: in vivo, human; conditions: for time to lessening of symptoms of depression after the first dose: single dose on day one: tamoxifen citrate 20 mg or Arimidex 1 mg; for symptoms of depression after the descending dose course: tamoxifen citrate 20/10/5/2.5/2.5 mg days 1-5, Arimidex 1/0.5/0.25/0.25 mg days 1-4
Description: Subject C is a person in good general physical health with no previous history of mental illness or depression. Subject C was prescribed Dapsone as a child in order to treat to treat dermititis herpetiformis. Subject C received no medication in the past four years. In December 2008, Subject C became lethargic, uninterested in usually pleasurable activities, restless, and began oversleeping. After a full month, symptoms of depression became extreme and subject C was thought to be in danger of becoming suicidal.
Subject C's last dose was 2.5 mg on the fifth day.
Suicidal thoughts returned and Subject C considered dropping out of law school. Subject C started a descending dose course of Arimidex®; starting with a single dose of 1 mg on day one. Again, symptoms of depression faded noticeably within 8 hours, in a manner similar to that in response to treatment with tamoxifen. Subject C took single daily doses of Arimidex®; 0.5 mg on day two; 0.25 mg each on days three and four.

[6] = tested on: symptoms of bipolar disorder (bipolar disorder I); conditions: human, in vivo
Method: as §1

[7] = tested on: protein kinase C alpha and epsilon isozymes; conditions: rat frontal cortex and hippocampus; Manji et al. 1999; cited from earlier work
[8] = in vivo; cited from earlier work
[9] = tested on: mania in patients with bipolar disorder; conditions: Yildiz et al. 2008; cited from earlier work
[10] = tested on: symptoms of bipolar disorder; conditions: Subject F; for onset of noticed difference: tamoxifen citrate 20 mg qd
Description: In a preferred aspect, the patient fills out the mood chart on a regular basis and a family member, friend, roommate or clinical or institutional staff member who interacts with the patient on a regular basis, also records a parallel mood chart on a regular basis. […] In another aspect, a mood chart is started at the start of treatment with an antiestrogen.
Subject F is a person who experienced a coronary three years prior to starting the study that their doctors blamed on stimulants used for ADD. Subject F had stents placed following the coronary. […] They maintain a job where they can do much of the work from home. It has been over a year since they were so severe they could not get out of bed or work. They have not had any extreme episodes in the immediate past. Subject F is nearsighted and has high blood pressure.

O=C1CCc2ccc(OCCCCN3CCN(c4cccc(Cl)c4Cl)CC3)cc2N1 [Abilify, Aripiprazole]
mood after self-discontinuing Abilify ([1]; Day 27, Abilify 5 mg qd not taken for 7 days): experienced some depression and mild anxiety and irritability
mood after resuming Abilify ([1]; Day 34, Abilify 5 mg qd): much better week

CC1=C(/C=C/C(C)=C/C=C/C(C)=C\C(=O)O)C(C)(C)CCC1 [Accutane]
depression under Accutane ([2]; Day 95, Accutane 30 mg qd with tamoxifen citrate 30 mg qd): still shows no signs of depression

Cc1ccc(-c2nc3ccc(C)cn3c2CC(=O)N(C)C)cc1 [Ambien]
sleep ([2]; Day 95, Ambien sample for trial): helped their sleeping

CC(C)(C#N)c1cc(Cn2cncn2)cc(C(C)(C)C#N)c1 [Arimidex, anastrozole]
severity of bipolar episodes and symptoms ([3]; Arimidex 1 mg once a day, within a week of starting): episodes and symptoms became less severe
mood swings with the antiestrogen as only bipolar medication [3]: controls mood swings without the concurrent use of other bipolar medication; also recorded: mood swings became virtually non-existent
frequency of bipolar cycles ([3]; while taking Arimidex 1 mg once a day): cycles were less frequent
response when Arimidex replaces tamoxifen citrate ([4]; Arimidex 0.25-1 mg used interchangeably with tamoxifen citrate 10 mg every other day): without change in response; also recorded: work equally as well
symptom-free period after the course [5]: After five months, Subject C remains free of symptoms of depression
time to lessening of symptoms of depression after the first dose [5]: ≤ 8 h
symptoms of depression after the descending dose course [5]: Symptoms of depression were substantially alleviated after day four

CCCC(CCC)C(=O)O [Depakote, Divalproex Sodium]
side effects / reason for discontinuation of earlier medication [6]: heavy side effects
protein kinase C alpha and epsilon isozymes [7]: reduction in protein kinase C alpha and epsilon isozymes

COc1ccc(C(CN(C)C)C2(O)CCCCC2)cc1 (stereo not shown) [Effexor XR, venlafaxine hydrochloride]
side effects / reason for discontinuation of earlier medication ([4]; Lamictal 10-12 weeks, Effexor XR 75 mg/daily for three days): lack of sleep, extreme mania, high anxiety and hyperactivity

O=C([O-])[O-].[Li+].[Li+] [Eskalith, Lithium Carbonate]
effect of earlier medication on bipolar mood swings [3]: slowed the swings, but did not change the severity of either the depressive or manic episodes
side effects / reason for discontinuation of earlier medication [3]: damage to the thyroid
protein kinase C alpha and epsilon isozymes [7]: reduction in protein kinase C alpha and epsilon isozymes

CN(C)CCCN1c2ccccc2CCc2ccccc21 [Imipramine hydrochloride]
side effects / reason for discontinuation of earlier medication [6]: extreme hand tremors
effect of earlier medication on bipolar mood swings [3]: continued to have bipolar swings

Nc1nnc(-c2cccc(Cl)c2Cl)c(N)n1 [Lamictal, Lamotrigine]
side effects / reason for discontinuation of earlier medication [6]: worsening skin condition; aggravated linear IgA dermatosis
effect of earlier medication on bipolar mood swings [3]: Mood swings were more frequent without Lamictal
patients who develop a rash [8]: 5-10%

CCCCCCCCCC(=O)O[C@H]1CC[C@H]2[C@@H]3CCC4=CC(=O)CC[C@@H]4[C@H]3CC[C@]12C [Nandrolone deconate]
side effects / reason for discontinuation of earlier medication [3]: Erythrocytosis

C[C@]12C=CC(=O)C=C1CC[C@@H]1[C@@H]2C(=O)C[C@@]2(C)[C@H]1CC[C@]2(O)C(=O)CO [Prednisone]
side effects / reason for discontinuation of earlier medication [6]: made all physical and mental conditions worse

Cc1nc2n(c(=O)c1CCN1CCC(c3noc4cc(F)ccc34)CC1)CCCC2 [Risperdal, Risperidone]
side effects / reason for discontinuation of earlier medication [6]: inability to work or function to a satisfactory level

OCCOCCN1CCN(C2=Nc3ccccc3Sc3ccccc32)CC1 [Seroquel, quetiapine fumarate]
side effects / reason for discontinuation of earlier medication [6]: extreme tiredness and inability to function

CC/C(=C(\c1ccccc1)c1ccc(OCCN(C)C)cc1)c1ccccc1.O=C(O)CC(O)(CC(=O)O)C(=O)O [Tamoxifen citrate, (Z)2-[4-(1,2-diphenyl-1-butenyl)phenoxy]-N,N-dimethylethanamine 2-hydroxy-1,2,3-propanetricarboxylate (1:1)]
response to treatment ([1]; Day 34, tamoxifen citrate 20 mg qd, other drugs cut in dose, listed as tamoxifen): responded well
reduction of concurrent bipolar medication ([1]; to Day 148, tamoxifen 20 mg daily): Topamax and Fluoxetine were able to be discontinued, and the dose of Abilify was significantly reduced
treatment of mania [9]: effective in treatment of mania in patients with bipolar disorder
mood swings with the antiestrogen as only bipolar medication [3]: controls mood swings without the concurrent use of other bipolar medication
mood swings with the antiestrogen as only bipolar medication ([3]; listed as tamoxifen citrate): mood swings became virtually non-existent
mood and energy as told to the psychiatrist ([2]; Day 9, tamoxifen citrate 20 mg qd): happier than they have been in a long time and has more energy
onset of feeling more balanced ([2]; tamoxifen citrate 20 mg qd added to Lithium ER, Depakote ER, Risperidone, Geodon): began feeling more balanced after only four days
reduction of concurrent bipolar medication ([2]; to Day 153, tamoxifen 20-30 mg daily): the doses of Depakote ER, Risperidone and Geodon were each able to be significantly reduced and Lithium was able to be discontinued
anger ([10]; Day 13, tamoxifen citrate 20 mg qd, Strattera not taken): felt less angry even without taking the Strattera
subject's report to study coordinator ([10]; Day 52, Lamictal lowered to 100 mg qd): noticing the ability to sense their moods better
mood after a forgotten dose ([10]; Day 70, dose forgotten the day before): felt more depressed than any day since they started the program
out of control spending ([10]; Day 77): they have not had this problem since they went on the Tamoxifen
outbursts ([10]; Day 84): one outburst with their spouse, the first since starting Tamoxifen
onset of noticed difference ([10]; listed as Tamoxifen): positive difference around four days after starting
onset of noticed difference ([10]; listed as tamoxifen citrate): noticed a difference within three or four days
moods, spending, anger (synopsis) ([10]; to Day 98, since starting Tamoxifen Citrate): their moods have been level, their normally “out of control spending” was no longer a problem and their anger and problems with spouse have all but vanished
reduction of concurrent bipolar medication ([10]; to Day 98, tamoxifen 20 mg daily): Lamictal was able to be discontinued, and Strattera was able to remain discontinued with mood stabilization
time remained stable since beginning treatment [4]: approximately 18 months
bipolar symptoms ([4]; tamoxifen citrate 10 mg or 20 mg base equivalents taken regularly as only mood-stabilizing medication): no longer has bipolar symptoms
mood stability ([4]; tamoxifen citrate 20 mg base equivalents daily for two weeks): increased mood stability and overall feeling of well being
symptom-free period after the course [5]: three months with no symptoms of depression
time to lessening of symptoms of depression after the first dose [5]: within the first eight hours
symptoms of depression after the descending dose course [5]: Symptoms of depression were alleviated

NC(=O)N1c2ccccc2C=Cc2ccccc21 [Tegretol XR, Carbamazepine]
side effects / reason for discontinuation of earlier medication [6]: hand and body tremors, as well as slurring of speech and numb feeling tongue
effect of earlier medication on bipolar mood swings [3]: Worked for a few weeks

CC(NC(C)(C)C)C(=O)c1cccc(Cl)c1 (stereo not shown) [Wellbutrin, bupropion hydrochloride]
side effects / reason for discontinuation of earlier medication [6]: dulled their mind and slowed their thinking
